According to patent publication US20160206645A1, “COMBINATION THERAPIES FOR TREATMENT OF HCV” (priority 2015, published 2016):

Tests used:
[1] = Plasma PK parameters at Week 2 and Week 8, interim analysis (Example 4); format: in vivo, human; design: AUC: concentration or dose not given beside the values; details: for Cmax / AUC: human
Description: Methods: HCV treatment-naïve or (peg)IFN±ribavirin treatment-experienced GT1/4-infected cirrhotic pts≧18 yrs with Child-Pugh (CP) score<7 (Class A) with evidence of portal hypertension or 7-9 (Class B) were enrolled. Pts received 12 wks of SMV (150 mg once daily [QD]), DCV (60 mg QD) and SOF (400 mg QD). Primary efficacy endpoint: sustained virologic response 12 wks after end of treatment (EOT, SVR12). Key secondary endpoints: SVR4, on-treatment failure, viral relapse, PK and safety.

[2] = Pharmacokinetic analysis at week 2 and week 8 (Example 5); format: in vivo, human
[3] = plasma, oral, Week 2, Child-Pugh A (n = 19)
[4] = plasma, oral, Week 2, Child-Pugh B (n = 9)
[5] = plasma, oral, Week 8, Child-Pugh A (n = 18)
[6] = plasma, oral, Week 8, Child-Pugh B (n = 9)
[7] = in vivo, Week 2, Child-Pugh A (n = 19), plasma
[8] = in vivo, Week 2, Child-Pugh B (n = 9), plasma
[9] = in vivo, Week 8, Child-Pugh A (n = 18), plasma
[10] = in vivo, Week 8, Child-Pugh B (n = 9), plasma

| Structure (SMILES) | Mean exposures within groups and at Wk2 vs Wk8 ([1]; CP A and CP B) | Cmax [1, 3] [ng/mL] | AUC [1, 4] [ng·h/mL] | Cmax [1, 4] [ng/mL] | AUC [1, 5] [ng·h/mL] | Cmax [1, 5] [ng/mL] | AUC [1, 6] [ng·h/mL] | Cmax [1, 6] [ng/mL] | mean exposure, higher in Child-Pugh B subjects than in Child-Pugh A subjects ([2]; treatment with SMV+SOF+DCV) [fold] | also measured |
| --- | --- | --- | --- | --- | --- | --- | --- | --- | --- | --- |
| COC(=O)N[C@H](C(=O)N1CCC[C@H]1c1nc(-c2ccc(-c3ccc(-c4c[nH]c([C@@H]5CCCN5C(=O)[C@@H](NC(=O)OC)C(C)C)n4)cc3)cc2)c[nH]1)C(C)C [Daclatasvir, daclatasvir] | similar | 1150 | 14200 | 958 | 15600 | 1070 | 13500 | 854 | – | AUC, mean ([1]; Week 2, Child-Pugh A (n = 19), plasma): 16022 ng·h/mL; mean exposure in Child-Pugh A and Child-Pugh B subjects ([2]; treatment with SMV+SOF+DCV): similar |
| C[C@@]1(F)[C@H](O)[C@@H](CO)O[C@H]1n1ccc(=O)[nH]c1=O [GS-331007] | – | – | – | – | – | – | – | – | – | mean exposure in Child-Pugh A and Child-Pugh B subjects ([2]; in vivo): similar |
| COc1ccc2c(O[C@@H]3C[C@H]4C(=O)N[C@]5(C(=O)NS(=O)(=O)C6CC6)C[C@H]5/C=C\CCCCN(C)C(=O)[C@@H]4C3)cc(-c3nc(C(C)C)cs3)nc2c1C [Simeprevir, simeprevir] | – | 6980 | 144000 | 7950 | 98600 | 6030 | 176000 | 8840 | 2.2 | Mean exposures for both groups, Wk2 vs Wk8 ([1]; CP A and CP B): comparable; Mean SMV exposure (AUC), higher in CP B vs CP A pts ([1]; Wk2): 1.3 fold; individual pt exposures in the CP B group ([1]; compared with CP A): within the range observed for CP A; AUC [1, 3]: 114000 ng·h/mL |
| CC(C)OC(=O)[C@H](C)N[P@](=O)(OC[C@H]1O[C@@H](n2ccc(=O)[nH]c2=O)[C@](C)(F)[C@@H]1O)Oc1ccccc1 [Sofosbuvir, sofosbuvir] | similar | – | – | – | – | – | – | – | 1.4 | AUC [1, 7]: 2860 ng·h/mL; Cmax [1, 7]: 1570 ng/mL; AUC [1, 8]: 3770 ng·h/mL; Cmax [1, 8]: 1740 ng/mL; AUC [1, 9]: 2730 ng·h/mL; Cmax [1, 9]: 1280 ng/mL; AUC [1, 10]: 3770 ng·h/mL; Cmax [1, 10]: 1420 ng/mL |
